Assay results published in the SangsterLogP compilation.

Assay: method code SF-AS, from PMID: 1438511

logD (pH 8.0) | logP | SMILES
2.75 |  | c1ccc(OCc2cccc(CN3CCCOC3)c2)cc1
 | 2.87 | c1ccc(OCc2cccc(CN3CCCCCC3)c2)cc1
